Measured values published in ChEMBL document CHEMBL4184202, “New lignans attenuating cognitive deterioration of Aβ transgenic flies discovered in Acorus tatarinowii” (Bioorg Med Chem Lett, 2018).
The source made the active and inactive calls. No cut-off for these calls is given here.

Tested on: Drosophila melanogaster
Assay: Antialzheimer disease activity in heterozygous transgenic Alzheimer's disease model fruit fly under control of elav-Gal4'C155 (P35*H29.3) expressing Abeta42 assessed as attenuation of cognitive deterioration by measuring increase in performance index by Pavlovian olfactory test
Assay type: functional, organism-based

| SMILES | Activity |
| --- | --- |
| CC12CC3CC(C)(C1)CC(N)(C3)C2 | Active |
| COc1cc([C@H]2O[C@@H](c3ccc(OC)c(OC)c3)[C@H](C)[C@@H]2C)ccc1O | Active |
| COc1ccc(C(=O)[C@H]2CO[C@@H](c3ccc(OC)c(OC)c3)[C@@H]2C)cc1OC (racemic) | Active |
| C/C=C/c1cc(OC)c2c(c1)[C@@H](C)[C@H](c1ccc(OC)c(OC)c1)O2 (relative stereo) | Active |
| C/C=C/c1ccc(O[C@H](C)[C@@H](O)c2cc(OC)c(OC)c(OC)c2)c(OC)c1 (relative stereo) | Active |
